According to US5216147A, “Radioactive benzodiazepine derivatives” (Sumitomo Chemical Company, Limited, priority 1987, dated 1993):
pIC50, pKi: −log10 of the molar value.

Target: Benzodiazepine Receptors
Experiment: Benzodiazepine receptor binding affinity: displacement of 3H-diazepam from rat synaptosomal membranes
Conditions: for pKi: 3H-diazepam; for pKi / pIC50: 4° C., 15 min, triplicate; for pIC50: inhibition of specific 3H-diazepam binding; for Relative Potency: relative to Diazepam = 100, 3H-diazepam
Protocol: 2'-Iododiazepam, Diazepam and Fludiazepam were screened as for benzodiazepine binding affinity according to the method reported by Nakatsuka (Life Sciences 36 (2) 113-119, 1985). An aliquot of synaptosomal membrane preparations was incubated at 4° C. for 15 min. with each of the unlabeled competing drugs (2'-Iodoiazepam, Diazepam and Fludiazepam) in different concentration and 3H-diazepam. The incubation was terminated by adding ice-cold Tris-HCl buffer followed by a rapid filtration through a Whatman GF/B filter. The bound 3H-diazepam retained on the filter was extracted with ACS-II (Amersham) and counted. All incubations were conducted in triplicate. Nonspecific binding was determined in tubes containing diazepam. Specific binding was calculated by subtracting the nonspecific binding from the total binding. IC50 values, the concentrations of the tested compounds that cause 50% inhibition of the specific 3H-diazepam were determined from the displacement curves obtained.

## CN1C(=O)CN=C(c2ccccc2F)c2cc(Cl)ccc21 [Fludiazepam]
  pKi: 9.00
  pIC50: 8.92
  Relative Potency: 770

## CN1C(=O)CN=C(c2ccccc2)c2cc(Cl)ccc21 [Diazepam]
  pKi: 8.11
  pIC50: 8.05
  Relative Potency: 100

## CN1C(=O)CN=C(c2ccccc2I)c2cc(Cl)ccc21 [2'-Iododiazepam, 7-chloro-1-methyl-5-(2-iodophenyl)-3H-1,4-benzodiazepin-2-one]
  pKi: 9.68
  pIC50: 9.60
  Relative Potency: 3600
